Measurements reported in patent US12509444B2, “Compounds and methods for CD73 modulation and indications therefor” (Plexxikon Inc., priority 2019, dated 2025).

What was measured:
[1] = biological target: T1, Human CD73 (amino acid residues 27-549) (Homo sapiens, UniProt P21589); test: CD73 enzymatic assay (luciferase-based indirect assay, CellTiter-Glo); type: biochemical; details: 0.4 nM CD73, 150 μM AMP, 1 hour at room temperature
T1 construct: Human CD73 (amino acid residues 27-549); His tag (N); made in house; host or cells: E. coli
T1 sequence (P21589 27-549): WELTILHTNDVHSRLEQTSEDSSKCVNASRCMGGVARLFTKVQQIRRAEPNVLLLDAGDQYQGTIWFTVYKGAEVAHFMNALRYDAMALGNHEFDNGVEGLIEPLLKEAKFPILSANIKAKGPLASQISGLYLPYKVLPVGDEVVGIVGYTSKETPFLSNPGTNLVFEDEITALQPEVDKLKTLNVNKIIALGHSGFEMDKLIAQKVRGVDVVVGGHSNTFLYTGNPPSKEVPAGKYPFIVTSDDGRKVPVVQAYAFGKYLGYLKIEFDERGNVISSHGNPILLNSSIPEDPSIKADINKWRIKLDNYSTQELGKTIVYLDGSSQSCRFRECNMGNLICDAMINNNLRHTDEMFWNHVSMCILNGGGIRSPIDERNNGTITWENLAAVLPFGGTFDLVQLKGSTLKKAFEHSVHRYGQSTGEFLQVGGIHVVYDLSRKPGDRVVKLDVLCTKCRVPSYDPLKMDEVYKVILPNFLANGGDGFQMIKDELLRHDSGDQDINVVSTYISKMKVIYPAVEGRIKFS
Procedure, shortened: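 His-tagged human CD73 (27-549) from E. coli, 0.4 nM, with 150 μM AMP in 50 mM HEPES pH 7.4, 0.01% Tween 20; 1 h at room temperature. AMP remaining read by CellTiter-Glo 2.0 luminescence with 1 μM final ATP after 30 min. IC50 from nonlinear regression of % inhibition.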

[2] = biological target: T2, human CD73 (Homo sapiens, UniProt P21589); test: Inhibitor activity against CD73 in cell based assay (CD73 expressing CHO-K1 cells); details: CHO-K1 cells expressing human CD73, 150 μM AMP, 4 hours of incubation; read-out: CHO-K1 CELL VARIANT: CD73 IC50
T2 construct: expressed in transfected cells
T2 sequence (P21589 27-549): T1 sequence (P21589 27-549)
Procedure, shortened: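 Stably transfected CHO-K1 cells expressing human CD73 (1×10^4/well) incubated 4 h with compound (8-point 1:3 titration, top 10 μM final, 0.2% DMSO) and 150 μM AMP. Residual AMP in supernatant measured by CellTiter-Glo luminescence with 1 μM ATP after 30 min at room temperature; IC50 by nonlinear regression of percent inhibition vs high/low controls.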

SMILES	IC50 [1] [µM]	IC50 [2] [µM]
O=C(NC1(C(F)(F)F)CCCC1)O[C@@H]1CCN(c2cn[nH]c(=O)c2Cl)C1 [P-0360, (R)-1-(5-chloro-6-oxo-1,6-dihydropyridazin-4-yl)pyrrolidin-3-yl (1-(trifluoromethyl)cyclopentyl) carbamate]	0.001 to 10	0.001 to 10
C[C@]1(O)CC[C@H](NC(=O)O[C@@H]2CCN(c3cn[nH]c(=O)c3Cl)C2)CC1 [P-0229, (R)-1-(5-chloro-6-oxo-1,6-dihydropyridazin-4-yl)pyrrolidin-3-yl ((1r,4R)-4-hydroxy-4-methylcyclohexyl)carbamate]	0.001 to 10	0.001 to 10
O=C(N[C@@H]1CCC[C@H]1F)O[C@@H]1CCN(c2cn[nH]c(=O)c2Cl)C1 [P-0447, (R)-1-(5-chloro-6-oxo-1,6-dihydropyridazin-4-yl)pyrrolidin-3-yl ((1R,2R)-2-fluorocyclopentyl)carbamate]	0.001 to 10	0.001 to 10
COC(=O)Cn1ncc(N2CC[C@@H](OC(=O)NC3CCC(F)(F)CC3)C2)c(Cl)c1=O [P-0244, methyl (R)-2-(5-chloro-4-(3-(((4,4-difluorocyclohexyl)carbamoyl)oxy)pyrrolidin-1-yl)-6-oxopyridazin-1(6H)-yl)acetate]	0.001 to 10	10 to 100
NCCn1ncc(N2CC[C@@H](OC(=O)NC3CCC(F)(F)CC3)C2)c(Cl)c1=O [P-0414, (R)-1-(1-(2-aminoethyl)-5-chloro-6-oxo-1,6-dihydropyridazin-4-yl)pyrrolidin-3-yl (4,4-difluorocyclohexyl)carbamate]	0.001 to 10	0.001 to 10
O=C(Nc1ccc(C(=O)O)cc1)N[C@H]1CC[C@H](NC(=O)O[C@@H]2CCN(c3cn[nH]c(=O)c3Cl)C2)CC1 [P-0347, 4-(3-((1R,4r)-4-(((((R)-1-(5-chloro-6-oxo-1,6-dihydropyridazin-4-yl)pyrrolidin-3-yl)oxy)carbonyl)amino)cyclohexyl)ureido)benzoic acid]	0.001 to 10	0.001 to 10
O=C(N[C@@H]1CC[C@H](O)C1)O[C@@H]1CCN(c2cn[nH]c(=O)c2Cl)C1 [P-0460, (R)-1-(5-chloro-6-oxo-1,6-dihydropyridazin-4-yl)pyrrolidin-3-yl ((1R,3S)-3-hydroxycyclopentyl)carbamate]	0.001 to 10	0.001 to 10
COC(=O)C12CCC(NC(=O)O[C@@H]3CCN(c4cn[nH]c(=O)c4Cl)C3)(CC1)C2 [P-0382, methyl (R)-4-((((1-(5-chloro-6-oxo-1,6-dihydropyridazin-4-yl)pyrrolidin-3-yl)oxy)carbonyl)amino)bicyclo[2.2.1]heptane-1-carboxylate]	0.001 to 10	0.001 to 10
Cc1cccc(S(=O)(=O)N[C@H]2CC[C@H](NC(=O)O[C@@H]3CCN(c4cn[nH]c(=O)c4Cl)C3)CC2)c1 [P-0249, (R)-1-(5-chloro-6-oxo-1,6-dihydropyridazin-4-yl)pyrrolidin-3-yl ((1r,4R)-4-((3-methylphenyl)sulfonamido)cyclohexyl)carbamate]	0.001 to 10	0.001 to 10
Cc1ccc(S(=O)(=O)N[C@H]2CC[C@H](NC(=O)O[C@@H]3CCN(c4cn[nH]c(=O)c4Cl)C3)CC2)cc1 [P-0293, (R)-1-(5-chloro-6-oxo-1,6-dihydropyridazin-4-yl)pyrrolidin-3-yl ((1r,4R)-4-((4-methylphenyl)sulfonamido)cyclohexyl)carbamate]	0.001 to 10	0.001 to 10
N#Cc1c(N2CC[C@@H](OC(=O)NC3CCN(C4CCCC4)CC3)C2)cn[nH]c1=O [P-0151, (R)-1-(5-cyano-6-oxo-1,6-dihydropyridazin-4-yl)pyrrolidin-3-yl (1-cyclopentylpiperidin-4-yl)carbamate]	0.001 to 10	0.001 to 10
O=C(NC1CCCCC1)N[C@H]1CC[C@@H](NC(=O)O[C@@H]2CCN(c3cn[nH]c(=O)c3Cl)C2)CC1 [P-0197, (R)-1-(5-chloro-6-oxo-1,6-dihydropyridazin-4-yl)pyrrolidin-3-yl ((1s,4S)-4-(3-cyclohexylureido)cyclohexyl) carbamate]	0.001 to 10	0.001 to 10
CC(C)(C)OC(=O)NC1CCC(NC(=O)O[C@@H]2CCN(c3cn[nH]c(=O)c3Cl)C2)CC1 (stereo partly drawn) [P-0124, (R)-tert-butyl (1-(5-chloro-6-oxo-1,6-dihydropyridazin-4-yl)pyrrolidin-3-yl) cyclohexane-1,4-diyldicarbamate]	0.001 to 10	0.001 to 10
O=C(N[C@H]1CC[C@H](NC(=O)c2ccc(C(F)(F)F)nc2)CC1)O[C@@H]1CCN(c2cn[nH]c(=O)c2Cl)C1 [P-0318, (R)-1-(5-chloro-6-oxo-1,6-dihydropyridazin-4-yl)pyrrolidin-3-yl ((1r,4R)-4-(6-(trifluoromethyl)nicotinamido)cyclohexyl)carbamate]	0.001 to 10	0.001 to 10
CS(=O)(=O)N1CC[C@@H](NC(=O)O[C@@H]2CCN(c3cn[nH]c(=O)c3Cl)C2)C1 [P-0355, (R)-1-(5-chloro-6-oxo-1,6-dihydropyridazin-4-yl)pyrrolidin-3-yl ((R)-1-(methylsulfonyl)pyrrolidin-3-yl)carbamate]	0.001 to 10	0.001 to 10

Continued, values first:

IC50 [1] [µM]	IC50 [2] [µM]	SMILES
0.001 to 10	0.001 to 10	N#Cc1c(N2CC[C@@H](NC(=O)NC3CCCCC3)C2)cn[nH]c1=O [P-0065, (R)-1-(1-(5-cyano-6-oxo-1,6-dihydropyridazin-4-yl)pyrrolidin-3-yl)-3-cyclohexylurea]
0.001 to 10	0.001 to 10	O=C(NC1CCC(F)(F)CC1)O[C@@H]1CCN(c2cnn(CC(O)CO)c(=O)c2Cl)C1 (stereo partly drawn) [P-0246, (3R)-1-(5-chloro-1-(2,3-dihydroxypropyl)-6-oxo-1,6-dihydropyridazin-4-yl)pyrrolidin-3-yl (4,4-difluorocyclohexyl)carbamate]
0.001 to 10	0.001 to 10	CCCNC(=O)[C@H]1CC[C@@H](NC(=O)O[C@@H]2CCN(c3cn[nH]c(=O)c3Cl)C2)CC1 [P-0182, (R)-1-(5-chloro-6-oxo-1,6-dihydropyridazin-4-yl)pyrrolidin-3-yl ((1s,4S)-4-(propylcarbamoyl)cyclohexyl) carbamate]
0.001 to 10	0.001 to 10	O=C(NC1C2CCC1CC(O)C2)O[C@@H]1CCN(c2cn[nH]c(=O)c2Cl)C1 (stereo partly drawn) [P-0423, (R)-1-(5-chloro-6-oxo-1,6-dihydropyridazin-4-yl)pyrrolidin-3-yl (3-hydroxybicyclo[3.2.1]octan-8-yl)carbamate]
0.001 to 10	10 to 100	C[C@@H]1C[C@@H](OC(=O)NC2CCC(F)(F)CC2)CN1c1cn[nH]c(=O)c1Cl [P-0337, (3R,5R)-1-(5-chloro-6-oxo-1,6-dihydropyridazin-4-yl)-5-methylpyrrolidin-3-yl (4,4-difluorocyclohexyl)carbamate]
0.001 to 10	0.001 to 10	O=C1CC2CCC(C1)C2NC(=O)O[C@@H]1CCN(c2cn[nH]c(=O)c2Cl)C1 (stereo partly drawn) [P-0407, (R)-1-(5-chloro-6-oxo-1,6-dihydropyridazin-4-yl)pyrrolidin-3-yl (3-oxobicyclo[3.2.1]octan-8-yl)carbamate]
0.001 to 10	0.001 to 10	C=Cc1c(N2CC[C@@H](OC(=O)NC3CCCC3)C2)cn[nH]c1=O [P-0363, (R)-1-(6-oxo-5-vinyl-1,6-dihydropyridazin-4-yl)pyrrolidin-3-yl cyclopentylcarbamate]
0.001 to 10	0.001 to 10	CS(=O)(=O)N[C@H]1CC[C@H](NC(=O)O[C@@H]2CCN(c3cnn(CC(O)CO)c(=O)c3Cl)C2)CC1 (stereo partly drawn) [P-0409, (3R)-1-(5-chloro-1-(2,3-dihydroxypropyl)-6-oxo-1,6-dihydropyridazin-4-yl)pyrrolidin-3-yl ((1r,4R)-4-(methylsulfonamido)cyclohexyl)carbamate]
0.001 to 10	10 to 100	Cn1cc(NC(=O)O[C@@H]2CCN(c3cn[nH]c(=O)c3Cl)C2)cn1 [P-0222, (R)-1-(5-chloro-6-oxo-1,6-dihydropyridazin-4-yl)pyrrolidin-3-yl (1-methyl-1H-pyrazol-4-yl)carbamate]
0.001 to 10	0.001 to 10	CS(=O)(=O)N[C@H]1CC[C@@H](NC(=O)O[C@@H]2CCN(c3cn[nH]c(=O)c3Cl)C2)CC1 [P-0128, (R)-1-(5-chloro-6-oxo-1,6-dihydropyridazin-4-yl)pyrrolidin-3-yl ((1s,4S)-4-(methylsulfonamido)cyclohexyl)carbamate]
0.001 to 10	0.001 to 10	Cc1cc(NC(=O)O[C@@H]2CCN(c3cn[nH]c(=O)c3Cl)C2)no1 [P-0220, (R)-1-(5-chloro-6-oxo-1,6-dihydropyridazin-4-yl)pyrrolidin-3-yl (5-methylisoxazol-3-yl)carbamate]
